Measurements from patent publication US10072034B2, “Kinase inhibitors” (Respivert Limited, priority 2016, dated 2018).

Tests used:
Jurkat cells = test: Cell cytotoxicity assay, Jurkat cell viability (assay (r)); assay type: cell-based, human; details: 24 hours
Method: 1×10^5 Jurkat cells (immortalised human T lymphocytes) are added to the appropriate number of wells of a 96 well plate in 100 μL of media (RPMI supplemented with 10% foetal bovine serum). 1 μL of DMSO control (final concentration 1.0% v/v) or test compound (final concentration 20, 5 or 1 μg/mL) is added to the wells and incubated at 37° C., 5% CO2. After 24 hours, the plate is centrifuged at 1200 rpm for 3 minutes and the supernatant discarded. Cells are then resuspended in 150 μL (final concentration 7.5 μg/mL) of propidium iodide (PI) in PBS and incubated at 37° C., 5% CO2 for 15 minutes. After 15 minutes, cells are analysed by flow cytometry (BD accuri) using the FL3 window. The % viability is calculated as the % of cells that are P negative in the test wells normalised to the DMSO control.

[1] = system: IFN gamma release in PBMCs; test: IFN gamma release in CD3/CD28 stimulated PBMC cells (assay (c)); assay type: cell-based; details: Homo sapiens, read-out: IC50 Values in PBMCs IFNγ
Method: PBMCs from healthy subjects are separated from whole blood using a density gradient (Lymphoprep, Axis-Shield Healthcare). Cells are added to a 96 well plate pre-coated with a mixture of CD3/CD28 monoclonal antibodies (0.3 μg/mL eBioscience and 3 μg/mL BD Pharmingen respectively). Compound at the desired concentration is then added to the wells and the plate left for 3 days under normal tissue culture conditions. Supernatants are harvested and IL-2 and IFN gamma release determined by Sandwich ELISA (Duo-set, R&D System). The IC50 is determined from the dose response curve.

Syk = Syk (Homo sapiens (Human), UniProt P43405); test: Syk enzyme inhibition (FRET, Z-LYTE); assay type: biochemical
Method: (§1) The enzyme inhibitory activities of compounds disclosed herein are determined by FRET using synthetic peptides labelled with both donor and acceptor fluorophores (Z-LYTE, Invitrogen Ltd., Paisley, UK).
The inhibitory activities of compounds of the invention against c-Src and Syk enzymes (Invitrogen), are evaluated in a similar fashion to that described hereinabove. The relevant enzyme (3000 ng/mL or 2000 ng/mL respectively, 2.5 μL) is incubated with the test compound (either 1 μg/mL, 0.1 μg/mL, 0.01 μg/mL, or 0.001 μg/mL, 2.5 μL each) for 2 hr at RT. The FRET peptides (8 μM. 2.5 μL), and appropriate ATP solutions (2.5 μL, 800 μM for c-Src, and 60 μM ATP for Syk) are then added to the enzymes/compound mixtures and the mixture incubated for 1 hr. Development reagent (protease, 5 μL) is added for 1 hr prior to detection in a fluorescence microplate reader (Varioskan® Flash, ThermoFisher Scientific).
(§2) In all cases, the site-specific protease cleaves non-phosphorylated peptide only and eliminates the FRET signal. Phosphorylation levels of each reaction are calculated using the ratio of coumarin emission (donor) over fluorescein emission (acceptor), for which high ratios indicate high phosphorylation and low ratios indicate low phosphorylation levels. […]

[2] = Microcentrifuge dissolution test 1): transfer from intestinal buffer (IB) to colonic buffer (CB); assay type: physicochemical; details: for Concentration, CB Timepoint 4 min: pH 7.2, 4 min; for Concentration, CB Timepoint 10 min: pH 7.2, 10 min; for Concentration, CB Timepoint 20 min: pH 7.2, 20 min; for Concentration, CB Timepoint 40 min: pH 7.2, 40 min; for Concentration, CB Timepoint 90 min: pH 7.2, 90 min; for Concentration, CB Timepoint 1,200 min: pH 7.2, 1,200 min; for Concentration, IB Timepoint −5 min / Concentration, IB Timepoint −15 min / Concentration, IB Timepoint −25 min: PBS pH 6.5, 37° C.; for Additional concentration, UCF Timepoint 90 min / Additional concentration, UCF Timepoint 1,200 min: after ultracentrifugation (free drug + drug in micelles); for Additional concentration, UCF Timepoint 90 min: CB pH 7.2, 90 min; for Additional concentration, UCF Timepoint 1,200 min: CB pH 7.2, 1,200 min
Method: In vitro non-sink dissolution performance of the Compound of Example 3 was evaluated alongside Reference Compounds A and B employing microcentrifuge dissolution tests in which samples were either 1) transferred from intestinal buffer (IB) to colonic buffer (CB) or 2) dosed directly into intestinal media containing simulated bile-salt micelles (IB-SIF). Dissolution performance of the compounds at various timepoints was determined by centrifugation and analysis of the supernatant concentrations by off-line reverse-phase HPLC analysis.
Test compounds (0.45 mg±0.05 mg) were weighed into a microcentrifuge tube, then 0.900 mL of IB receptor solution—phosphate buffered saline (PBS) warmed to 37° C. at pH 6.5—was added. A timer was started and the sample tubes were vortexed at the maximum setting for 1 minute. When the timer read 3, 13 and 23 min—corresponding to the 25, 15 and 5 min timepoints, respectively—the sample tubes were centrifuged for 1 min at 15,800 Relative Centrifugal Force (RCF). At each timepoint, a portion of the supernatant (50 μL) was added to diluent {250 μL of 75/25 THF/Water (v/v)} and the compound concentrations were measured by off-line HPLC analysis (Table 6a). After a further 5 min, 0.900 mL of CB receptor solution—pH 10.7 PBS solution—was added, such that the pH was adjusted to 7.2, and the timer was reset to 0 min. When the timer read 2, 8, 18, 38, 88 and 1,198 min—corresponding to the 4, 10, 20, 40, 90 and 1,200 min timepoints, respectively—the sample tubes were centrifuged for 1 min at 15,800 RCF. At each timepoint, a portion of the supernatant (50 μL) was added to diluent {250 μL of 75/25 THF/Water (v/v)} and the compound concentrations were measured by off-line HPLC analysis (Table 6a). The HPLC samples for the 90 and 1,200 min timepoints were additionally centrifuged for 8 min at 80,000 rpm at 37° C. in an ultracentrifuge (UCF), then the supernatant (50 μL) was added to diluent {250 μL of 75/25 THF/Water (v/v)} and the compound concentrations were measured by off-line HPLC analysis (Table 6b) to determine the concentration of free drug+drug in micelles.

p38 MAPKα = p38 MAPKα (Homo sapiens (Human), UniProt Q16539); test: p38 MAPKα enzyme inhibition (FRET, Z-LYTE; Method 2); assay type: biochemical
Chain of p38 MAPKα (Q16539 whole entry): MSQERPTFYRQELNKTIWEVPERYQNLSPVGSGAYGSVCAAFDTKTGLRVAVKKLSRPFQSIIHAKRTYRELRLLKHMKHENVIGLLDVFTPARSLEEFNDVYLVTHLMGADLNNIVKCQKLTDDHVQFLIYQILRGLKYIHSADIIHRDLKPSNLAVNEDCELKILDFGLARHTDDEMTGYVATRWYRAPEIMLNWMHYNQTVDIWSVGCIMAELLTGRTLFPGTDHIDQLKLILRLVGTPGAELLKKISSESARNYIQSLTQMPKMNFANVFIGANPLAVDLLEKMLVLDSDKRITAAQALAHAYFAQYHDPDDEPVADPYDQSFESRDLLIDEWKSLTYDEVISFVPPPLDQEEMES
Method: as §1
The inhibitory activities of test compounds against the p38 MAPKα isoform (MAPK14: Invitrogen) are evaluated indirectly by determining the level of activation/phosphorylation of the down-stream molecule, MAPKAP-K2. The p38 MAPKα protein (80 ng/mL, 2.5 μL) is mixed with the test compound (2.5 μL of either 4 μg/mL, 0.4 μg/mL, 0.04 μg/mL or 0.004 μg/mL) for 2 hr at RT. […] The mixture is incubated for 1 hr at RT. Development reagent (protease, 5 μL) is added for 1 hr prior to detection in a fluorescence microplate reader (Varioskan® Flash, ThermoFisher Scientific).
This method follows the same steps as Method 1 above, but utilises a higher concentration of the p38 MAPKα protein (2.5 μL of 200 ng/mL protein instead of 2.5 μL of 80 ng/mL protein) for mixing with the test compound (tested at either 1 μg/mL, 0.1 μg/mL, 0.01 μg/mL or 0.001 μg/mL).
as §2

| SMILES | % Viability at 1 μg/mL (Jurkat cells) | % Viability at 5 μg/mL (Jurkat cells) | % Viability at 20 μg/mL (Jurkat cells) | IC50 [1] | IC50 (Syk) | Concentration, CB Timepoint 4 min [2] | Concentration, CB Timepoint 10 min [2] | Concentration, CB Timepoint 20 min [2] | Concentration, CB Timepoint 40 min [2] | Concentration, CB Timepoint 90 min [2] | Concentration, CB Timepoint 1,200 min [2] | Concentration, IB Timepoint −5 min [2] | Concentration, IB Timepoint −15 min [2] | Concentration, IB Timepoint −25 min [2] | Additional concentration, UCF Timepoint 90 min [2] | Additional concentration, UCF Timepoint 1,200 min [2] | IC50 (p38 MAPKα) |
| --- | --- | --- | --- | --- | --- | --- | --- | --- | --- | --- | --- | --- | --- | --- | --- | --- | --- |
| COc1cc(Nc2cc(Oc3ccc(NC(=O)Nc4cc(C(C)(C)C)cc(NS(C)(=O)=O)c4OC)c4ccccc34)ccn2)cc(OCCOCCOCC(=O)O)c1 [Example 3] | 99% | 99% | 96% | 31.8 nM | 12 nM | 9300 ng/mL | 9100 ng/mL | 14300 ng/mL | 48300 ng/mL | 60700 ng/mL | 85400 ng/mL | 8500 ng/mL | 7500 ng/mL | 5300 ng/mL | 34.1 µg/mL | 74.9 µg/mL | 23 nM |
| COc1cc(Nc2nccc(Oc3ccc(NC(=O)Nc4cc(C(C)(C)C)cc(NS(C)(=O)=O)c4OC)c4ccccc34)n2)cc(OCCOCCOCCC(=O)O)c1 [Reference Compound A, 3-(2-(2-(3-((4-((4-(3-(5-(tert-butyl)-2-methoxy-3-(methylsulfonamido)phenyl)ureido)naphthalen-1-yl)oxy)-pyrimidin-2-yl)amino)-5-methoxyphenoxy)ethoxy)ethoxy)propanoic acid] | 96% | 93% | 48% |  |  | 11400 ng/mL | 11500 ng/mL | 10700 ng/mL | 10700 ng/mL | 8400 ng/mL | 7900 ng/mL | 5300 ng/mL | 4600 ng/mL | 2900 ng/mL | 5.1 µg/mL | 3.9 µg/mL |  |
| C#Cc1cc(Nc2nccc(Oc3ccc(NC(=O)Nc4cc(C(C)(C)C)nn4-c4ccc(C)cc4)c4ccccc34)n2)cc(C(=O)NCCOCCOCCOC)c1 [Reference Compound B, 3-((4-((4-(3-(3-(tert-butyl)-1-(p-tolyl)-1H-pyrazol-5-yl)ureido)naphthalen-1-yl)oxy)pyrimidin-2-yl)amino)-5-ethynyl-N-(2-(2-(2-methoxyethoxy)ethoxy)ethyl)benzamide] |  |  |  |  |  | 5000 ng/mL | 1900 ng/mL | 900 ng/mL | 600 ng/mL | 0 ng/mL | 4900 ng/mL | 2200 ng/mL | 1000 ng/mL | 1900 ng/mL | 0.0 µg/mL | 1.6 µg/mL |  |
